From ChEMBL document CHEMBL1201862, “PubChem BioAssay data set” (2004)
Active and inactive are the calls of the source.

Assays:
[1] = molecular target: Heat shock protein HSP 90-alpha (Homo sapiens, UniProt P07900); format: functional, organism-based
[2] = molecular target: T1, Calpain-2 catalytic subunit (Sus scrofa, UniProt P43367); assay: pig calpain II inhibitor potency, dose response, biochemical, fluorogenic peptide substrate (AID 1420); format: functional
T1 sequence (P43367 whole entry): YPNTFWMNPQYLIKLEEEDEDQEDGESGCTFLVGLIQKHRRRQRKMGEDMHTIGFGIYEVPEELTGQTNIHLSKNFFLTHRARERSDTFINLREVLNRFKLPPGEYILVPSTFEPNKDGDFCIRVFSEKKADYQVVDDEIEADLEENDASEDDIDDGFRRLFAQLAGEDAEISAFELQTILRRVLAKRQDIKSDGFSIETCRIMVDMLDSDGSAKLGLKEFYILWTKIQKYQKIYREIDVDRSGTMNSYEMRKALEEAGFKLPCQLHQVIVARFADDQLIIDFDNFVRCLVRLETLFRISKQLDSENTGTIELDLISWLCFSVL

[3] = molecular target: T2, Ubiquitin-conjugating enzyme E2 N (Homo sapiens, UniProt P61088); format: functional;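 note: Dose-response confirmation in a TR-FRET assay detecting UBC13-driven polyubiquitin chain formation, inhibition measured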
T2 sequence (P61088 whole entry): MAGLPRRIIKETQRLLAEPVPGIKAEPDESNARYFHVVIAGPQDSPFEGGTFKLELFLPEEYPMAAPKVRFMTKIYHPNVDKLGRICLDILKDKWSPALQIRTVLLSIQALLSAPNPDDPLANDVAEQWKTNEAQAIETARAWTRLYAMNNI

[4] = cytotoxicity in KRAS-transformed pancreatic duct cells, primary screen, cell-based, fluorescence, HTS (AID 431); format: functional; conditions: Homo sapiens;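 note: cell line used: HPDE-C7K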
[5] = system: Streptococcus sp. 'group A'; assay: growth inhibition of control SK(-) GAS strain, dose response, counter-screen for streptokinase expression inhibitor project, luminescence, kanamycin, BacTiterGlo, confirmation (AID 1900); format: functional, organism-based
[6] = molecular target: T3, Streptokinase A (Streptococcus pyogenes serotype M1, UniProt P10520); assay: S. pyogenes streptokinase expression inhibitors, potency, dose response, plasminogen activation absorbance, OD405 (AID 1914); format: functional, Streptococcus pyogenes M1 GAS;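 note: secreted streptokinase activity via plasminogen activation per viability signal from cell pellet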
T3 sequence (P10520 whole entry): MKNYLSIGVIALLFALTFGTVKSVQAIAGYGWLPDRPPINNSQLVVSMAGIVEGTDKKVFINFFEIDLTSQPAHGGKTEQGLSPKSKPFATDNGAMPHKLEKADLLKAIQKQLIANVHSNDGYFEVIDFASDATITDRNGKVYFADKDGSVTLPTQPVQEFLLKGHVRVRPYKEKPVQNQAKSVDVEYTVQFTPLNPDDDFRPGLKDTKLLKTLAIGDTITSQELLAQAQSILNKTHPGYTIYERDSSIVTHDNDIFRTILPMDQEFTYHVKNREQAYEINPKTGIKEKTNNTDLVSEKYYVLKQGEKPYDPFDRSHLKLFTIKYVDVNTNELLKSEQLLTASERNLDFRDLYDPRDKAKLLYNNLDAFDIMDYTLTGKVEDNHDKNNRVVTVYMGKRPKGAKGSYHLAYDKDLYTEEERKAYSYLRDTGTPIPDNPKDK

[7] = cytotoxicity in HPDE-C7 cells, cell-based, fluorescence, HTS (AID 430); format: functional; conditions: Homo sapiens
[8] = system: Streptococcus; assay: Group A Streptococcus viability loss, dose response, counter-screen for streptokinase expression inhibitor project, luminescence, BacTiterGlo (AID 1915); format: functional, organism-based;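 note: potency for reduction of bacterial viability or growth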
[9] = molecular target: Disintegrin and metalloproteinase domain-containing protein 17 (Homo sapiens, UniProt P78536); assay: ADAM17 protease inhibitors, dose response, counter-screen for ADAM10 exosite inhibitor project, biochemical, quenched FRET substrate (AID 743253)
Sequence of Disintegrin and metalloproteinase domain-containing protein 17 (P78536 whole entry, the tested form may be a part): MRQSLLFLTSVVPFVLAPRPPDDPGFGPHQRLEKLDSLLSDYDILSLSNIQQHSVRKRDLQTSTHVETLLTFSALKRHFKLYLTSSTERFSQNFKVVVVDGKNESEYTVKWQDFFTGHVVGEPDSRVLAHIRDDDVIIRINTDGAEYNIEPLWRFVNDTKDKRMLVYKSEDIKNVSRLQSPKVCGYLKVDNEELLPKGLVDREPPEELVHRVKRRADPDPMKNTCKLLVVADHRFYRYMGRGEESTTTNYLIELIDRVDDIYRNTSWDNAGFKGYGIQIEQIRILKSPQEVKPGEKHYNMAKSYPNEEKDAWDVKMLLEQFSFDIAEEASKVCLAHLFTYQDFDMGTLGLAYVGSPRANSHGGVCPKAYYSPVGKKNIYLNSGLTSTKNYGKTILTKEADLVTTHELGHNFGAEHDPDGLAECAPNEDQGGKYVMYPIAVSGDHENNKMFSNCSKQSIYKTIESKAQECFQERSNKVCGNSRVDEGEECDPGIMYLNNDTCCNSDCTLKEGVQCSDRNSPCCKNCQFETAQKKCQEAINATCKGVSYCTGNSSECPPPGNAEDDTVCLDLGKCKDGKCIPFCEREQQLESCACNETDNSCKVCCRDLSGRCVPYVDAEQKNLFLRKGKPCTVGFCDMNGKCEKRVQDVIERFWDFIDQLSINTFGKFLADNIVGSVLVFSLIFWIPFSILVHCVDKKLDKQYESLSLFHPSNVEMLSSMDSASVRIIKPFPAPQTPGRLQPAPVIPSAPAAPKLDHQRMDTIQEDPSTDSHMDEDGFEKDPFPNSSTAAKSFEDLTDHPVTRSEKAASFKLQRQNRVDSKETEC

[10] = molecular target: Peroxisome proliferator-activated receptor gamma/Nuclear receptor coactivator 2 (Homo sapiens, UniProt P37231); format: functional;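 note: agonist potency for raising coactivator recruitment to the receptor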
[11] = molecular target: Peroxisome proliferator-activated receptor gamma/Nuclear receptor coactivator 3 (Homo sapiens, UniProt P37231); format: functional;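 note: agonist potency for raising coactivator recruitment to the receptor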
[12] = molecular target: Peroxisome proliferator-activated receptor gamma/Nuclear receptor coactivator 1 (Homo sapiens, UniProt P37231); format: functional;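 note: agonist potency as compounds enhance coactivator SRC-1 recruitment to PPARgamma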
Sequence of Peroxisome proliferator-activated receptor gamma/Nuclear receptor coactivator 1 (P37231 whole entry): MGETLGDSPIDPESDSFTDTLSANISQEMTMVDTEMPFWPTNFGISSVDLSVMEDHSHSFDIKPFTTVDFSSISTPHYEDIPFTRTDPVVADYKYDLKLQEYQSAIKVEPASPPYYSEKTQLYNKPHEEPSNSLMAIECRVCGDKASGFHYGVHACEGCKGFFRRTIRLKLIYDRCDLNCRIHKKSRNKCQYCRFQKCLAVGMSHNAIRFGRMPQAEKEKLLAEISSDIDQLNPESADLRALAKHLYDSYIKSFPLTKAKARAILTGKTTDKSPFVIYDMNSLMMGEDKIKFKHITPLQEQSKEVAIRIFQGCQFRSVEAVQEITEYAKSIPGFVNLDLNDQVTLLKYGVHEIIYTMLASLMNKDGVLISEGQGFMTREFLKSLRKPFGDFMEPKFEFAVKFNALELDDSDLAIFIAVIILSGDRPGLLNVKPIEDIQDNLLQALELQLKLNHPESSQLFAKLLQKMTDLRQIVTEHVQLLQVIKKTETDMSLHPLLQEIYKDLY
Sequence of Peroxisome proliferator-activated receptor gamma/Nuclear receptor coactivator 1 (Q15788 whole entry, further chain): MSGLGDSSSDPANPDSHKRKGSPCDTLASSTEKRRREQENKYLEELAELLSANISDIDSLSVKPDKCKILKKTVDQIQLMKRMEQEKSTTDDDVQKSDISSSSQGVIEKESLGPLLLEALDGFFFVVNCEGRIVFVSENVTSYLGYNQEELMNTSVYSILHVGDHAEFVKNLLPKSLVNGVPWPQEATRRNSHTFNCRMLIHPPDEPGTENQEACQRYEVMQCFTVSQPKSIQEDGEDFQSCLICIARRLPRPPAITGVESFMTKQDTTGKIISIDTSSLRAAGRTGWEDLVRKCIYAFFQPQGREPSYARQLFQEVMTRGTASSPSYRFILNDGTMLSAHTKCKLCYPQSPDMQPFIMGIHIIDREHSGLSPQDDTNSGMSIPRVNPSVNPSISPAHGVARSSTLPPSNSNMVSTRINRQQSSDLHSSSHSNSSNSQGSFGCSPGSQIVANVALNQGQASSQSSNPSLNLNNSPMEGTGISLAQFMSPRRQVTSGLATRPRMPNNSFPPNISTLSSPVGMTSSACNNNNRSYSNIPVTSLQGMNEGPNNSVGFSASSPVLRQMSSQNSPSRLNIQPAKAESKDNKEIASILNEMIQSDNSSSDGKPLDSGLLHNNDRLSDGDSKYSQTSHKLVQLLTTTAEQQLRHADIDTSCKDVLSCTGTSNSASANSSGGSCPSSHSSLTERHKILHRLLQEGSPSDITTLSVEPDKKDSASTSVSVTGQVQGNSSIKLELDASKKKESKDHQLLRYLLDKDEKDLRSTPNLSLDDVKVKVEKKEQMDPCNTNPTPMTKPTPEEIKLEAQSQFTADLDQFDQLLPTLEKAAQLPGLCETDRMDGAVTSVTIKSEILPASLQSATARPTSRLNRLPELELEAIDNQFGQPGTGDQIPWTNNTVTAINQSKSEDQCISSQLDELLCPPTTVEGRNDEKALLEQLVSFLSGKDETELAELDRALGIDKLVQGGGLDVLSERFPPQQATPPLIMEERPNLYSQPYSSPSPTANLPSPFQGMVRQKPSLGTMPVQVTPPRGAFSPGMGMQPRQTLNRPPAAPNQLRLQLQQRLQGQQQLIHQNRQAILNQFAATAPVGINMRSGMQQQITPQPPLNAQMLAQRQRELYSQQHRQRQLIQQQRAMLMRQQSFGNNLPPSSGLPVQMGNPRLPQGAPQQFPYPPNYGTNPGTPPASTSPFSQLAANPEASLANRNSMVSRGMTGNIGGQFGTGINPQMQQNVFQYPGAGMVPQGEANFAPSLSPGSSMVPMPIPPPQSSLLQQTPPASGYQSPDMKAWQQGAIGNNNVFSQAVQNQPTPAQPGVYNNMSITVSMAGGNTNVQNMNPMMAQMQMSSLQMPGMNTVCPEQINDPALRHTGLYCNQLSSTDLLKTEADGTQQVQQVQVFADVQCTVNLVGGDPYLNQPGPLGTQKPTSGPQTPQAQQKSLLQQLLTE

[13] = system: BJ; assay: cytotoxicity toward BJ-TERT fibroblasts, dose response, cell-based, RAS-independent, luminescence (AID 1933); format: functional; conditions: Homo sapiens
[14] = system: HeLa; assay: Cytotoxicity counterscreen assay for transcriptional activators of heat shock protein 70 (Hsp70). [Related pubchem assays: 1203, 1252 ]; format: functional; conditions: Homo sapiens;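 note: cells exposed to compound for 16 hours before readout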
[15] = system: BJ; assay: cytotoxicity toward BJ-TERT-LT-ST fibroblasts, dose response, cell-based, RAS-independent, luminescence (AID 1935); format: functional; conditions: Homo sapiens;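 note: BJ fibroblasts immortalized with TERT plus LT and ST oncogenes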
[16] = system: BJ; assay: cells; format: functional, cell-based; conditions: Homo sapiens
[17] = cytotoxicity toward DRD oncogenic fibroblasts, dose response, cell-based, non-viral oncogenic, luminescence (AID 1934); format: functional; conditions: Homo sapiens
[18] = cells
[19] = molecular target: Cytochrome P450 2C19 (Homo sapiens, UniProt P33261); assay: Cytochrome panel assay with activity outcomes. Panel member name: p450-cyp2c19 Compounds with AC50 equal or less than 10 uM are considered active; format: functional; conditions: read-out: AC50
Sequence of Cytochrome P450 2C19 (P33261 whole entry): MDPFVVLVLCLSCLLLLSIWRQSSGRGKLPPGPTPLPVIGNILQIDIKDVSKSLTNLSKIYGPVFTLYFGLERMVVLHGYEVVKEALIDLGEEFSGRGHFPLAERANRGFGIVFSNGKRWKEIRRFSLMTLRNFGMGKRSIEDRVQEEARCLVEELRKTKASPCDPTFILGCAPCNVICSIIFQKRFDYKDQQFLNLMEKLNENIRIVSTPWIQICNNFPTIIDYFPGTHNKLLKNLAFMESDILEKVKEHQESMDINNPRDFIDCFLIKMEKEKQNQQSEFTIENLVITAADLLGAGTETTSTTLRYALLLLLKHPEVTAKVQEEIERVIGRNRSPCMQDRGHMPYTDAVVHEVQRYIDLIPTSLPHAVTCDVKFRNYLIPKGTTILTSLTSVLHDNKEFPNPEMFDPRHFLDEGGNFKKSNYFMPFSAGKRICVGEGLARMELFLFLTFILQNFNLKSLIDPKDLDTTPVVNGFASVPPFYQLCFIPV

[20] = molecular target: Cytochrome P450 2C9 (Homo sapiens, UniProt P11712)
Sequence of Cytochrome P450 2C9 (P11712 whole entry): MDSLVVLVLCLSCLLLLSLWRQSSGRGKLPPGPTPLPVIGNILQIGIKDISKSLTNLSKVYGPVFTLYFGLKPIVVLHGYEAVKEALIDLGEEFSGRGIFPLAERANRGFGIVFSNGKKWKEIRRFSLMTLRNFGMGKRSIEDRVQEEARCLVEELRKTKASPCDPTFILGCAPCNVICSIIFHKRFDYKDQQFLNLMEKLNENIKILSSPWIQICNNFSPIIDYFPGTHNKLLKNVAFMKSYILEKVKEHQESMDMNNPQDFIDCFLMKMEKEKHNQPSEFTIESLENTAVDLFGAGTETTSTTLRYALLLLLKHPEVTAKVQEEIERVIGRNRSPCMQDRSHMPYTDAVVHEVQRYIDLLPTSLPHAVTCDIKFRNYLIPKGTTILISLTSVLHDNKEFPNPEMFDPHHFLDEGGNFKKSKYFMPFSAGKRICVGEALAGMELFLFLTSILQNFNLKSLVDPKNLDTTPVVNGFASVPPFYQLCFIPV

[21] = molecular target: Epstein-Barr nuclear antigen 1 (Epstein-Barr virus (strain B95-8) (HHV-4) (Human herpesvirus 4), UniProt P03211); assay: EBNA-1 inhibitors, dose response, biochemical, fluorescence polarization, 1536-well (AID 2381); design: species or system human gammaherpesvirus 4;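 note: fluorescence polarization of a Cy5 DNA probe bound by EBNA-1 protein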
Sequence of Epstein-Barr nuclear antigen 1 (P03211 whole entry): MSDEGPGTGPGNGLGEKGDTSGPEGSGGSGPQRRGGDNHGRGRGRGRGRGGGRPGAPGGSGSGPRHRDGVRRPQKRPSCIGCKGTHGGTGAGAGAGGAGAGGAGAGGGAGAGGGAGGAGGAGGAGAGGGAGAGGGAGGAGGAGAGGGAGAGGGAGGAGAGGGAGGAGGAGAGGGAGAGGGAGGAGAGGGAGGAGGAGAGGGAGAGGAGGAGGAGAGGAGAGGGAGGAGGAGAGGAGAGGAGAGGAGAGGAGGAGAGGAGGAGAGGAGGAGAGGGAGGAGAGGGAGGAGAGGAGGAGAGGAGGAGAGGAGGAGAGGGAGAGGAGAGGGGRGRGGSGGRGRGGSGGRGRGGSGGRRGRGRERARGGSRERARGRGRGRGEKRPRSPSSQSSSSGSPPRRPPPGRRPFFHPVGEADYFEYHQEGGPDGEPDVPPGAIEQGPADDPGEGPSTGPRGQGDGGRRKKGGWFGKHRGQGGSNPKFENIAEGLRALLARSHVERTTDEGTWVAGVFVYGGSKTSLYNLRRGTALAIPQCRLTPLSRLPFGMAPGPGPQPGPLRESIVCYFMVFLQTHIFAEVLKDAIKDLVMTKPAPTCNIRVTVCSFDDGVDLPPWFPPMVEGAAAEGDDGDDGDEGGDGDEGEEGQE

[22] = molecular target: Lytic switch protein BZLF1 (Epstein-Barr virus (strain B95-8) (HHV-4) (Human herpesvirus 4), UniProt P03206); assay: EBV ZTA inhibitors, dose response, counter-screen for EBNA-1 inhibitor project, biochemical, fluorescence polarization, Epstein-Barr virus, 1536-well (AID 2377); design: species or system human gammaherpesvirus 4;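 note: fluorescence polarization of Cy5-labelled ZRE DNA probe bound by purified Zta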
Sequence of Lytic switch protein BZLF1 (P03206 whole entry): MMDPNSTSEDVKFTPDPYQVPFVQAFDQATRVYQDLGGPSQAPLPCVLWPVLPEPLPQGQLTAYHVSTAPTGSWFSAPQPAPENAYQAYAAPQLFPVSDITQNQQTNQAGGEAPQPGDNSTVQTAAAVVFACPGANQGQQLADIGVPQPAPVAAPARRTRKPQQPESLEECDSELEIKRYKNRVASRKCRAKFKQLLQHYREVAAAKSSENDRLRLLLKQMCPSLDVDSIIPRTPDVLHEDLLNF

[23] = molecular target: T4, Cytochrome P450 1A2 (Homo sapiens, UniProt P05177);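 note: PubChem cytochrome P450 panel assay, CYP1A2 panel member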
T4 sequence (P05177 whole entry): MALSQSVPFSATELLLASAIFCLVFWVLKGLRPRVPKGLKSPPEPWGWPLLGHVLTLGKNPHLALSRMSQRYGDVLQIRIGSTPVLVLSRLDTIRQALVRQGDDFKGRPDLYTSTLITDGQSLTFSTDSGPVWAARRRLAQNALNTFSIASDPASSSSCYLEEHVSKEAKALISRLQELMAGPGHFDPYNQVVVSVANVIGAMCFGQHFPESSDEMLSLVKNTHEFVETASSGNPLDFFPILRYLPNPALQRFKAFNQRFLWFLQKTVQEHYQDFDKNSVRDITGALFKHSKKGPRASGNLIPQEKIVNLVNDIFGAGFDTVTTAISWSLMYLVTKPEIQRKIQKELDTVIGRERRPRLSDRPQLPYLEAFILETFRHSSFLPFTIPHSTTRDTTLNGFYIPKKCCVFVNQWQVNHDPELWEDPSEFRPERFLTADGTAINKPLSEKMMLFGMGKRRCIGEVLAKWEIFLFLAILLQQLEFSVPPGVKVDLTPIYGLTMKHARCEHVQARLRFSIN

Structure (SMILES): C=C(C)COc1ccc(-c2n[nH]cc2Oc2cccc(OC)c2)c(O)c1
- AC50 [1]: 7.54 µM (active)
- IC50 [2]: 7.92 µM (not active)
- IC50 [3]: > 20 µM (inactive)
- EC50 [4]: 7.54 µM (active)
- EC50 [5]: 8.18 µM (active)
- EC50 [6]: > 150 µM (not active)
- EC50 [7]: 8.77 µM (active)
- EC50 [8]: 10 µM (active)
- IC50 [9]: > 69.5 µM (inactive)

Structure (SMILES): CCOCCn1/c(=N/C(=O)c2cc(Cl)sc2Cl)sc2cc(S(N)(=O)=O)ccc21
- EC50 [10]: 14 µM (not active)
- EC50 [11]: 16.8 µM (not active)
- EC50 [12]: 13.4 µM (not active)

Structure (SMILES): COc1ccc(/C=C/C(=O)c2cc(F)ccc2OC(=O)c2ccccc2OC)cc1OC
- EC50 [13]: 1.14 µM (inconclusive)
- CC50 [14]: 14.6 µM (not active)
- EC50 [15]: 1.41 µM (active)
- EC50 [16]: 2.76 µM (active)
- EC50 [17]: 2.56 µM (active)

Structure (SMILES): COc1ccccc1CNC(=O)C1CCN(S(=O)(=O)c2cccc3nonc23)CC1
- IC50 [18]: 3.4 µM (active)

Structure (SMILES): CCc1nnc(NC(=O)CSc2nc3cc4c(cc3cc2C)OCCO4)s1
- AC50 [19]: 6.31 µM (inconclusive)
- AC50 [20]: 0.398 µM (inconclusive)
- IC50 [21]: 5.82 µM (active)
- IC50 [22]: > 111 µM (not active)
- AC50 [23]: 1.58 µM (inconclusive)
